This note sets out measurements from ChEMBL document CHEMBL3994655, “Methylsulfonyl benzothiazoles (MSBT) derivatives: Search for new potential antimicrobial and anticancer agents” (2017).

SMILES strings stand for the structures. Values after ≈ are worked out from the molar mass of the structure shown. Where a name gives a salt, the structure may show the parent alone.

For assay [1], the system named is Candida albicans. As to the kind of experiment: Antifungal activity against Candida albicans A01 assessed as zone of inhibition at 1 mg/ml by agar well diffusion method. Type of assay: functional. The settings on record: read-out: DIZ. On the technique in general: In agar diffusion tests the substance spreads into inoculated agar from a disc or well.
Assay [2] deals with Escherichia coli. In words: Antibacterial activity against Escherichia coli ATCC 35421 assessed as zone of inhibition at 1 mg/ml by agar well diffusion method. Type of assay: functional. As to conditions: read-out: DIZ.
Assay [3] concerns Escherichia coli. As to the kind of experiment: Antibacterial activity against Escherichia coli ATCC 35421 assessed as zone of inhibition at 5 mg/ml by agar well diffusion method. It counts as functional. The settings on record: read-out: DIZ.
Assay [4] relates to Staphylococcus aureus. As to the kind of experiment: Antibacterial activity against Staphylococcus aureus 209P assessed as zone of inhibition at 5 mg/ml by agar well diffusion method. It counts as functional. The settings on record: read-out: DIZ.
Assay [5] has as its system Staphylococcus aureus. In words: Antibacterial activity against Staphylococcus aureus 209P assessed as zone of inhibition at 1 mg/ml by agar well diffusion method. It counts as functional. The settings on record: read-out: DIZ.
Assay [6] concerns Candida albicans. In words: Antifungal activity against Candida albicans A01 assessed as zone of inhibition at 5 mg/ml by agar well diffusion method. Type of assay: functional. The settings on record: read-out: DIZ.
Assay [7] deals with HeLa. In words: Cytotoxicity against human HeLa cells assessed as cell growth at 10^-6 M after 48 hrs by SRB assay relative to control. Type of assay: functional. The settings on record: read-out: Activity.
For assay [8], the system named is HeLa. In words: Cytotoxicity against human HeLa cells assessed as cell growth at 10^-4 M after 48 hrs by SRB assay relative to control. The settings on record: read-out: Activity. It counts as functional. Background: The SRB assay estimates cell density from bound dye.
Assay [9] concerns HeLa. In words: Cytotoxicity against human HeLa cells assessed as cell growth at 10^-7 M after 48 hrs by SRB assay relative to control. It counts as functional. The settings on record: read-out: Activity.
Assay [10] concerns HeLa. As to the kind of experiment: Cytotoxicity against human HeLa cells assessed as cell growth at 10^-5 M after 48 hrs by SRB assay relative to control. Type of assay: functional. As to conditions: read-out: Activity.
Assay [11] concerns HeLa. In words: Growth inhibition of human HeLa cells after 48 hrs by SRB assay. It counts as functional.
The subject of assay [12] is Staphylococcus aureus. In words: Antibacterial activity against Staphylococcus aureus 209P after 24 to 48 hrs by macro-broth dilution method. Type of assay: functional. A general note: In broth dilution the organism is exposed to a series of concentrations in liquid medium.
Assay [13] concerns Staphylococcus epidermidis. As to the kind of experiment: Antibacterial activity against Staphylococcus epidermidis 209E after 24 to 48 hrs by macro-broth dilution method. Type of assay: functional.
Assay [14] deals with HeLa. As to the kind of experiment: Cytotoxicity against human HeLa cells assessed as reduction in cell viability after 48 hrs by SRB assay. It counts as functional, cell-based.

Regarding `CCOc1ccc2sc(S(C)(=O)=O)nc2c1S(=O)(=O)N1CCO[C@H](COc2ccccc2)C1`, the zone of inhibition at 1000 µg/mL in assay [1], in assay [2] and in [5] was no more than 7 mm in each case. In addition, the zone of inhibition at 5000 µg/mL in [3] is no more than 7 mm; in assay [4], 9 mm; in [6], no more than 7 mm.
As to `CCOc1ccc2sc(S(C)(=O)=O)nc2c1S(=O)(=O)NC1CC1`, the zone of inhibition at 1000 µg/mL in assay [1], in assay [2] and in assay [5] was no more than 7 mm throughout. Besides, the zone of inhibition at 5000 µg/mL in assay [3], in [4] and in assay [6] was no more than 7 mm in each case.
As a reminder, the GI50 is the concentration giving 50% growth inhibition. High values mean lower sensitivity of the cells, low ones greater sensitivity of the cells. By TGI is commonly meant the concentration at which net growth stops. A high value points to less potent growth arrest. Consider `COc1cccc2c1C(=O)c1c(O)c3c(c(O)c1C2=O)C[C@@](O)(C(=O)CO)C[C@@H]3O[C@H]1C[C@H](N)[C@H](O)[C@H](C)O1` [DOXORUBICIN HYDROCHLORIDE], for which the growth at 1 µM in assay [7] is -82.9%. The growth at 100 µM in [8] was -84.6%. Moreover, the growth at 0.1 µM in [9] was -76.8%. For the same compound, in assay [10], the growth at 10 µM was -84.1%. In assay [11], the GI50 is less than 0.1 µM and the TGI is less than 0.1 µM.
In the case of `CCOc1ccc2sc(S(C)(=O)=O)nc2c1NC(=O)CNCN1CCN(C(=O)OC(C)(C)C)CC1`, the zone of inhibition at 1000 µg/mL in [1], in [2] and in [5] was no more than 7 mm each time. The zone of inhibition at 5000 µg/mL was no more than 7 mm in assay [3], 8 mm in assay [4] and no more than 7 mm in assay [6].
Turning to `CCOc1ccc2sc(S(C)(=O)=O)nc2c1[N+](=O)[O-]`, the zone of inhibition at 1000 µg/mL in assay [1], in [2] and in assay [5] was no more than 7 mm throughout. Also, the zone of inhibition at 5000 µg/mL in assay [3] was no more than 7 mm; in assay [4], 8 mm; in assay [6] it was no more than 7 mm.
As to `CCCNS(=O)(=O)c1c(OCC)ccc2sc(S(C)(=O)=O)nc12`, the zone of inhibition at 1000 µg/mL in [1], in assay [2] and in assay [5] was no more than 7 mm in each case. For the same compound, the zone of inhibition at 5000 µg/mL in assay [3], in [4] and in [6] was no more than 7 mm throughout.
As to `CCNS(=O)(=O)c1c(OCC)ccc2sc(S(C)(=O)=O)nc12`, the zone of inhibition at 1000 µg/mL in assay [1], in assay [2] and in [5] was no more than 7 mm in each case. The zone of inhibition at 5000 µg/mL in assay [3], in [4] and in assay [6] was no more than 7 mm each time.
In the case of `CS(=O)(=O)c1nc2cc(OCc3ccccc3)ccc2s1`, the zone of inhibition at 1000 µg/mL was no more than 7 mm in assay [1], no more than 7 mm in [2] and 8 mm in [5]. In addition, the zone of inhibition at 5000 µg/mL in assay [3], in assay [4] and in assay [6] was no more than 7 mm each time.
In general, MIC refers to the least concentration at which growth counts as inhibited. For `O=C(O)c1cn(C2CC2)c2cc(N3CCNCC3)c(F)cc2c1=O` [CIPROFLOXACIN], the MIC in [12] and in assay [13] was 8 µg/mL (≈ 24.1 µM) throughout.
Consider `CCOc1ccc2sc(S(C)(=O)=O)nc2c1S(=O)(=O)NC(C)C`, for which the zone of inhibition at 1000 µg/mL in [1], in assay [2] and in assay [5] was no more than 7 mm throughout. The zone of inhibition at 5000 µg/mL in [3], in [4] and in assay [6] was no more than 7 mm throughout.
`CCOc1ccc2sc(S(C)(=O)=O)nc2c1S(=O)(=O)NC`: the zone of inhibition at 1000 µg/mL in [1], in assay [2] and in assay [5] was no more than 7 mm each time. The zone of inhibition at 5000 µg/mL in assay [3], in assay [4] and in assay [6] was no more than 7 mm in each case.
Regarding `CCOc1ccc2sc(S(C)(=O)=O)nc2c1S(=O)(=O)NCc1ccccc1`, the zone of inhibition at 1000 µg/mL in [1], in assay [2] and in assay [5] was no more than 7 mm each time. The zone of inhibition at 5000 µg/mL in assay [3] is no more than 7 mm; in assay [4], no more than 7 mm; in assay [6], 9 mm.
For `CCOc1ccc2sc(S(C)(=O)=O)nc2c1NC(=O)CN1CCOCC1`, the values for the zone of inhibition at 1000 µg/mL in assay [1], in assay [2] and in assay [5] were no more than 7 mm, no more than 7 mm and 9 mm, respectively. Also, the zone of inhibition at 5000 µg/mL in assay [3], in assay [4] and in assay [6] was no more than 7 mm each time.
Consider `CCOc1ccc2sc(S(C)(=O)=O)nc2c1S(=O)(=O)O`, for which the zone of inhibition at 1000 µg/mL in assay [1], in assay [2] and in assay [5] was no more than 7 mm each time. Moreover, the zone of inhibition at 5000 µg/mL was no more than 7 mm in assay [3], no more than 7 mm in assay [4] and 9 mm in assay [6].
As for `CS(=O)(=O)c1nc2cc(O)ccc2s1`, the zone of inhibition at 1000 µg/mL in assay [1], in assay [2] and in assay [5] was no more than 7 mm each time. Also, the zone of inhibition at 5000 µg/mL in assay [3], in [4] and in assay [6] was no more than 7 mm in each case.
With `CCOc1ccc2sc(S(C)(=O)=O)nc2c1NC(=O)CNC(C)C`, the zone of inhibition at 1000 µg/mL in assay [1], in assay [2] and in assay [5] was no more than 7 mm in each case. For the same compound, the zone of inhibition at 5000 µg/mL in [3], in assay [4] and in assay [6] was no more than 7 mm each time.
As to `CCOc1ccc2sc(S(C)(=O)=O)nc2c1NC(=O)CNCN1CCCC1`, the zone of inhibition at 1000 µg/mL in [1], in assay [2] and in assay [5] was no more than 7 mm each time. Besides, the zone of inhibition at 5000 µg/mL in [3], in assay [4] and in assay [6] was no more than 7 mm each time.
With `CCOc1ccc2sc(S(C)(=O)=O)nc2c1S(=O)(=O)Cl`, the zone of inhibition at 1000 µg/mL in [1], in assay [2] and in assay [5] was no more than 7 mm in each case. Moreover, the zone of inhibition at 5000 µg/mL in [3], in [4] and in assay [6] was no more than 7 mm throughout.
As to `CS(=O)(=O)c1nc2cc(OCc3ccc(OCc4ccccc4)cc3)ccc2s1`, the zone of inhibition at 1000 µg/mL in assay [1], in assay [2] and in assay [5] was no more than 7 mm throughout. Moreover, the zone of inhibition at 5000 µg/mL in [3], in [4] and in assay [6] was no more than 7 mm throughout.
Take `CCOc1ccc2sc(S(C)(=O)=O)nc2c1S(=O)(=O)Nc1ccc(Cl)c(Cl)c1`: the zone of inhibition at 1000 µg/mL in assay [1], in [2] and in [5] was no more than 7 mm throughout. Besides, the zone of inhibition at 5000 µg/mL in [3], in assay [4] and in assay [6] was no more than 7 mm each time.
On to `CCOc1ccc2sc(Cl)nc2c1`, for which the zone of inhibition at 1000 µg/mL in assay [1], in assay [2] and in [5] was no more than 7 mm each time. The zone of inhibition at 5000 µg/mL in [3], in assay [4] and in assay [6] was no more than 7 mm each time.
In the case of `CCOc1ccc2sc(S(C)(=O)=O)nc2c1NC(=O)CCl`, the zone of inhibition at 1000 µg/mL in [1], in assay [2] and in [5] was no more than 7 mm each time. Also, the zone of inhibition at 5000 µg/mL in [3], in assay [4] and in assay [6] was no more than 7 mm in each case.
Regarding `CS(=O)(=O)c1nc2cc(OCc3ccc(-c4ccccc4)cc3)ccc2s1`, the zone of inhibition at 1000 µg/mL in [1], in assay [2] and in [5] was no more than 7 mm throughout. In addition, the zone of inhibition at 5000 µg/mL in assay [3], in [4] and in [6] was no more than 7 mm each time.
In general, LC50 refers to the concentration that kills 50% of the test population. Read a low LC50 as greater toxicity. For the compound `CCOc1ccc2sc(S(C)(=O)=O)nc2c1S(=O)(=O)Nc1ccc(Br)cc1`, in [7], the growth at 1 µM was 73.7%. Besides, the Activity entry in assay [14] is “Dose-dependent effect”. Further, the zone of inhibition at 1000 µg/mL was no more than 7 mm in assay [1], 9 mm in assay [2] and 9 mm in [5]. The zone of inhibition at 5000 µg/mL was 10 mm in assay [3], 11 mm in assay [4] and no more than 7 mm in assay [6]. The growth at 100 µM in assay [8] is -82.3%. In [9], the growth at 0.1 µM came to 95.9%. For the same compound, the growth at 10 µM in assay [10] was -11.2%. Moreover, halving of growth in [11] (GI50) required 6.8 µM. Moreover, in assay [11], the LC50 turned out to be 74.5 µM. Moreover, net growth in assay [11] stopped (TGI) at 40.6 µM. Also, in assay [11], the “growth inhibition (GI)” value was “Dose-dependent effect”.
Take `CCOc1ccc2sc(S(C)(=O)=O)nc2c1`: the zone of inhibition at 1000 µg/mL in assay [1], in [2] and in [5] was no more than 7 mm in each case. In addition, the results for the zone of inhibition at 5000 µg/mL in assay [3], in assay [4] and in assay [6] were no more than 7 mm, 8 mm and no more than 7 mm, respectively.
